# Patent publication US20210277003A1, “OGA INHIBITOR COMPOUNDS” (Janssen Pharmaceutica NV, priority 2018, published 2021)
# Tests used:
# [1] = biological target: T1, recombinant human Meningioma Expressed Antigen 5 (MGEA5), also referred to as O-GlcNAcase (OGA) (Homo sapiens, UniProt O60502); test: OGA biochemical assay: inhibition of hydrolysis of fluorescein mono-ß-D-N-Acetyl-Glucosamine (FM-GlcNAc), fluorescence readout; conditions: FM-GlcNAc substrate; for Emax: read-out: Enzymatic Emax (%); for IC50: read-out: Enzymatic hOGA, pIC50 (converted)
# T1 construct: Full length OGA enzyme was purchased at OnGene (cat #TP322411); purchased OnGene (so in the source)
# T1 sequence (O60502 1-916): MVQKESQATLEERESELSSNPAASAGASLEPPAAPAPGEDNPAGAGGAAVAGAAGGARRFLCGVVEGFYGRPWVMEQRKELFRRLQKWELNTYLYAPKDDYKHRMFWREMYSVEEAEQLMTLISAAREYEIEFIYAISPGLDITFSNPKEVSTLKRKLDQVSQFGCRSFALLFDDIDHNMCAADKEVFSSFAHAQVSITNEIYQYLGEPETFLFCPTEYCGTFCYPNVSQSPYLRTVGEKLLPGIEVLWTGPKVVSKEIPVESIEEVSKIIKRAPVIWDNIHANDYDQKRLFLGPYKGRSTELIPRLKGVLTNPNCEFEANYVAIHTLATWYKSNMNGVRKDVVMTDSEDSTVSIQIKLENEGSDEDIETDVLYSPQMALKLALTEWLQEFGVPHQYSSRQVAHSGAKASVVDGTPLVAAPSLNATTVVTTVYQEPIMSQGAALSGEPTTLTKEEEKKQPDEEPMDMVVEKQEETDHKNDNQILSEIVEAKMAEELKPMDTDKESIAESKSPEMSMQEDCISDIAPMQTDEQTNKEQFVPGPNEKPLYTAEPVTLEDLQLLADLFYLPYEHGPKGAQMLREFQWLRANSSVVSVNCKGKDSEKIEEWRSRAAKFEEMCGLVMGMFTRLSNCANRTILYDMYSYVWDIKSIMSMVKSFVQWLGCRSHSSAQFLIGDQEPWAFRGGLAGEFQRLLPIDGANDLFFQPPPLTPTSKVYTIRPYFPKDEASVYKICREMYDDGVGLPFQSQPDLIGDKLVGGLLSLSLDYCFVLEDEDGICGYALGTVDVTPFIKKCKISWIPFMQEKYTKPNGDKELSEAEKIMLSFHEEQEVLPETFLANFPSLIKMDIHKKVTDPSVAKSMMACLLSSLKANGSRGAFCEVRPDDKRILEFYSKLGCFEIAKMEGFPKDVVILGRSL
# Summary of the method: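 Full-length recombinant human OGA (2 nM) was pre-incubated with compound for 60 min, then reacted with 100 uM FM-GlcNAc for 6 h at room temperature in 200 mM citrate/phosphate pH 7.2 with 0.005% Tween-20. Reactions were stopped with pH 11.0 carbonate and fluorescein read at 485/538 nm. IC50 and Hill coefficient came from curve fitting.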
# [2] = test system: OGA in HEK293 cells inducible for P301L mutant human Tau (isoform 2N4R); test: OGA cellular assay: immunocytochemical detection of O-GlcNAcylated proteins (CTD110.6 antibody); type: cell-based; conditions: 6 hours incubation; for Emax / EC50: Homo sapiens, HEK293, 6 h; for Emax: maximum = Thiamet G 200 uM; for EC50: read-out: Cellular hOGA, pEC50 (converted)
# Experimental: HEK293 cells inducible for P301L mutant human Tau (isoform 2N4R) were established at Janssen. Thiamet-G was used for both plate validation (high control) and as reference compound (reference EC50 assay validation). OGA inhibition is evaluated through the immunocytochemical (ICC) detection of O-GlcNAcylated proteins by the use of a monoclonal antibody (CTD110.6; Cell Signaling, #9875) detecting 0-GlcNAcylated residues as previously described (Dorfmueller et al. 2010 Chemistry & biology, 17:1250). Inhibition of OGA will result in an increase of O-GlcNAcylated protein levels resulting in an increased signal in the experiment. Cell nuclei are stained with Hoechst to give a cell culture quality control and a rough estimate of immediate compounds toxicity, if any. ICC pictures are imaged with a Perkin Elmer Opera Phenix plate microscope and quantified with the provided software Perkin Elmer Harmony 4.1.
# Cells were propagated in DMEM high Glucose (Sigma, #D5796) following standard procedures. 2 days before the cell assay cells are split, counted and seeded in Poly-D-Lysine (PDL) coated 96-wells (Greiner, #655946) plate at a cell density of 12,000 cells per cm^2 (4,000 cells per well) in 100p of Assay Medium (Low Glucose medium is used to reduce basal levels of GlcNAcylation) (Park et al. 2014 The Journal of biological chemistry 289:13519). At the day of compound test medium from assay plates was removed and replenished with 90 µl of fresh Assay Medium. 10p of compounds at a 10 fold final concentration were added to the wells. Plates were centrifuged shortly before incubation in the cell incubator for 6 hours. DMSO concentration was set to 0.2%. Medium is discarded by applying vacuum. For staining of cells medium was removed and cells washed once with 100 μl D-PBS (Sigma, #D8537). From next step onwards unless other stated assay volume was always 50p and incubation was performed without agitation and at room temperature. Cells were fixed in 50 μl of a 4% paraformaldehyde (PFA, Alpha aesar, #043368) PBS solution for 15 minutes at room temperature. […] Before analysis samples were washed 2 times manually for 5 minutes in ICC base buffer.
# Imaging is performed using Perkin Elmer Phenix Opera using a water 20× objective and recording 9 fields per well. Intensity readout at 488 nm is used as a measure of O-GlcNAcylation level of total proteins in wells. To assess potential toxicity of compounds nuclei were counted using the Hoechst staining. IC50-values are calculated using parametric non-linear regression model fitting. As a maximum inhibition Thiamet G at a 200 uM concentration is present on each plate. In addition, a concentration response of Thiamet G is calculated on each plate.
Compound,Emax [1] [%],IC50 [1] [nM],Emax [2] [%],EC50 [2] [nM],Enzymatic hOGA; pIC50 [1],Cellular hOGA; pEC50 [2],Enzymatic Emax (%) [1] [%]
CCCCn1ccc2c(Nc3c(C)cc(C(=O)OC)cc3C)nccc21 [Compound 64],102,3.98,80,24.5,,,
CCCCn1ccc2c(Nc3c(C)cc4c(c3C)CC(=O)N(C)C4)nccc21 [Compound 88],103,4.07,95,10.7,,,
CCCCn1ccc2c(Nc3c(C)cc(C)c(Br)c3C)nccc21 [Compound 66],103,3.8,84,186,,,
FCCCCn1ccc2c(Nc3c(Cl)cccc3Cl)nccc21 [Compound 7],103,,84,214,7.98,,
Cc1cnc(-n2ccc3c(Nc4c(Cl)cc(F)cc4Cl)nccc32)o1 [Compound 183],95.3,501,13.9,> 1000,,,
CCCCn1ccc2c(Nc3c(C)cccc3C(C)C)nccc21 [Compound 67],104,0.891,99,16.2,,,
CCCCn1c(F)cc2c(Nc3c(C)cncc3C)nccc21 [Compound 31],99,302,27,> 1000,,,
Cc1cncc(C)c1Nc1nccc2c1ccn2CC1CC1(F)F (stereo not shown) [Compound 1],102,151,56,708,,,
CCCCn1ccc2c(Nc3c(C)cc(-c4cnn(C)c4)cc3C)nccc21 [Compound 54],104,2.04,82,20.9,,,
CCCCn1ccc2c(Nc3c(Cl)ccc4c3ccn4C)nccc21 [Compound 14],103,,80,182,8.54,,
Clc1cccc(Cl)c1Nc1nccc2c1ccn2CC1CCO1 (stereo not shown) [Compound 159],104,,84,20.4,8.87,,
Cc1cncc(C)c1Nc1nccc2c1ccn2CC1CC1 [Compound 41],101,24.5,71,95.5,,,
Cc1cc(C(F)(F)F)cc(Cl)c1Nc1nccc2c1ccn2CC(C)(F)F [Compound 128],101,,90.3,12.9,8.58,,
Cc1ccnc(C)c1Nc1nccc2c1ccn2CC(F)(F)C(C)C [Compound 202],101,3.09,88.1,3.63,,,
CCCCn1ccc2c(Nc3c(C)cc(CF)cc3C)nccc21 [Compound 101],103,3.24,83,57.5,,,
CCCCn1ccc2c(Nc3c(Cl)cccc3Cl)ncc(F)c21 [Compound 74],100,28.8,40,> 1000,,,
CC(C)=C(F)Cn1ccc2c(Nc3c(C)cc(-c4cnn(C)c4)cc3C)nccc21 [Compound 208],101,10.2,90.1,72.4,,,

Compound,Emax [1] [%],IC50 [1] [nM],Emax [2] [%],EC50 [2] [nM],Enzymatic hOGA; pIC50 [1],Cellular hOGA; pEC50 [2],Enzymatic Emax (%) [1] [%]
Cc1ccnc(C(F)(F)F)c1Nc1nccc2c1ccn2CCC1CC1 [Compound 197],104,4.9,86.3,56.2,,,
Cc1cc(C(F)(F)F)cc(C(C)C)c1Nc1nccc2c1ccn2CC1CCO1 (stereo not shown) [Compound 161],104,,88.8,6.76,8.58,,
Cc1ccnc(C)c1Nc1nccc2c1ccn2CCC1COC1 [Compound 38],100,115,63,562,,,
CCC(F)(F)Cn1ccc2c(Nc3c(C)ccnc3C)nccc21 [Compound 27],104,2.24,112,7.59,,,
CCCC(C)n1ccc2c(Nc3c(Cl)cccc3Cl)nccc21 (stereo not shown) [Compound 39],102,53.7,56,692,,,
"Cc1ccnc(C)c1Nc1nccc2c1ccn2CC1CCO1 (single isomer, unassigned) [Compound 25a]",102,5.89,92,,,7.3,
CC(C)C(F)(F)Cn1ccc2c(Nc3c(Cl)cccc3Cl)nccc21 [Compound 196],104,1.51,91.7,8.51,,,
CCCCn1ccc2c(Nc3c(C)cc(C(=O)N4CCCC4)cc3C)nccc21 [Compound 75],102,2.82,85,6.03,,,
CCC(C)Cn1ccc2c(Nc3c(C)ccnc3C)nccc21.Cl (stereo not shown) [Compound 16],101,,85,32.4,7.83,,
Cc1ccnc(C)c1Nc1nccc2c1ccn2CCC(C)(F)F [Compound 90],102,,62,363,7.31,,
CCCCn1ccc2c(Nc3c(C)cc(C(=O)NC)cc3C)nccc21 [Compound 57],102,4.57,107,11,,,
Cc1cc(Cl)cc(C)c1Nc1nccc2c1ccn2CC(C)(F)F [Compound 150],101,,82.1,5.37,8.57,,
Cc1cc(F)cc(C)c1Nc1nccc2c1ccn2CC1CC(F)(F)C1 [Compound 170],100,27.5,78.6,83.2,,,
Clc1cccc(Cl)c1Nc1nccc2c1ccn2Cc1ccon1 [Compound 172],102,3.39,80.8,70.8,,,
Cc1cc(C)c(Nc2nccc3c2ccn3CC(C)(F)F)c(OC(F)F)n1 [Compound 156],102,,70.9,45.7,8.07,,
Cc1ccnc(C)c1Nc1nccc2c1ccn2CC1CCOC1 (stereo not shown) [Compound 140],103,,63.9,603,7.08,,
Clc1cccc(Cl)c1Nc1nccc2c1ccn2CCC1COC1 [Compound 122],,,84.1,263,7.72,,103.22
